The target in assay [1] is Melanocortin receptor 3 (Homo sapiens, UniProt P41968).
The target of assay [2] is 3',5'-cyclic-AMP phosphodiesterase 4D (Homo sapiens, UniProt Q08499). Type of assay: functional.
Assay [3] concerns the target Histamine H3 receptor (Homo sapiens, UniProt Q9Y5N1).
For assay [4], the target named is Growth hormone secretagogue receptor type 1 (Homo sapiens, UniProt Q92847).
In assay [5] the target is T1, Thromboxane A2 receptor (Homo sapiens, UniProt P21731).
T1 sequence (P21731 whole entry): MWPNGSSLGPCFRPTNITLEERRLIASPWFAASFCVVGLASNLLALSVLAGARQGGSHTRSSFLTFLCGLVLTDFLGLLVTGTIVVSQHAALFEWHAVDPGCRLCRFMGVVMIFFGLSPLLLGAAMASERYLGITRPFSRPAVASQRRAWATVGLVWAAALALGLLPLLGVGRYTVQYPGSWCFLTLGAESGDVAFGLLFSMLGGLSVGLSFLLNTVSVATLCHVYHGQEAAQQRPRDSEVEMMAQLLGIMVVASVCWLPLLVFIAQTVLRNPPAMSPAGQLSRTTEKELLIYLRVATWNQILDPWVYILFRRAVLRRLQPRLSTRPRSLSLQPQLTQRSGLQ

For assay [6], the target named is 5-hydroxytryptamine receptor 2B (Homo sapiens, UniProt P41595). Type of assay: functional, cell-based.
Chain of 5-hydroxytryptamine receptor 2B (P41595 whole entry): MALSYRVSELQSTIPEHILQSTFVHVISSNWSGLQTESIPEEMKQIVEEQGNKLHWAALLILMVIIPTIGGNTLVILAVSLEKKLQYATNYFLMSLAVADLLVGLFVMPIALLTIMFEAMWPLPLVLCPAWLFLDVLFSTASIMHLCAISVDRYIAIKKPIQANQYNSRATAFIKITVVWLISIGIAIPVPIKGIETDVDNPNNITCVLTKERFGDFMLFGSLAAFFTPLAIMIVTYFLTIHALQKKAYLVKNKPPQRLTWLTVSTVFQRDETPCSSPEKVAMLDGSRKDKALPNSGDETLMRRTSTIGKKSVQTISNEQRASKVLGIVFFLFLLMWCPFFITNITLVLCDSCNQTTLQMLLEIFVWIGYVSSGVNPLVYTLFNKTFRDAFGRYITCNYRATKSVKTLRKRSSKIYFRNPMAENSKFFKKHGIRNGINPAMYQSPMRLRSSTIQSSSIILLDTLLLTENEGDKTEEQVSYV
The target of assay [7] is T2, 5-hydroxytryptamine receptor 1A (Homo sapiens, UniProt P08908).
T2 sequence (P08908 whole entry): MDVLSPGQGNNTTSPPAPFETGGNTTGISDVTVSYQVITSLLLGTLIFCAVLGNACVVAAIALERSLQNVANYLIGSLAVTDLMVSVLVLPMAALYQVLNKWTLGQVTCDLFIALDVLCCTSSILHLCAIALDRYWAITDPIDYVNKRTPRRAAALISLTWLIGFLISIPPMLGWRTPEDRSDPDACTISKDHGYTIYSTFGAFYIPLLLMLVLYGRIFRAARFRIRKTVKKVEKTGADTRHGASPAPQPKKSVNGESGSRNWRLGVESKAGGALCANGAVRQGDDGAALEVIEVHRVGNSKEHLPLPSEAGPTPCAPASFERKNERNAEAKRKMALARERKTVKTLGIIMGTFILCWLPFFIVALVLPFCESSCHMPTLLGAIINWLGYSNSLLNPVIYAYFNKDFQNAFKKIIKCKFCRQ
Type of assay: functional, cell-based.

Assay [8] deals with Histamine H1 receptor (Homo sapiens, UniProt P35367).
Chain of Histamine H1 receptor (P35367 whole entry): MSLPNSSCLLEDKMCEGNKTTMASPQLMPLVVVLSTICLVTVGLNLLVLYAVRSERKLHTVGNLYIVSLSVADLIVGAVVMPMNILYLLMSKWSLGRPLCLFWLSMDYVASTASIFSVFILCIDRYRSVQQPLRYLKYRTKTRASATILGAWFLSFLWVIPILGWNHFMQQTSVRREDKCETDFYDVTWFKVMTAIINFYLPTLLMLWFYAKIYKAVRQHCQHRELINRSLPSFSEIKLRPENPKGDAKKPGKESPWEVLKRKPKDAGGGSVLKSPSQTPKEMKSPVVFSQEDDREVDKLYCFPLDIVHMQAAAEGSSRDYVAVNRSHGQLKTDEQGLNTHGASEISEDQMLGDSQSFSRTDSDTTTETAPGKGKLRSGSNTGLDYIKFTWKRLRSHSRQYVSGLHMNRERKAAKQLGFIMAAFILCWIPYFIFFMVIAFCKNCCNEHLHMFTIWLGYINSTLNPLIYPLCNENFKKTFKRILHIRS
For assay [9], the target named is Vasopressin V2 receptor (Homo sapiens, UniProt P30518).
Chain of Vasopressin V2 receptor (P30518 whole entry): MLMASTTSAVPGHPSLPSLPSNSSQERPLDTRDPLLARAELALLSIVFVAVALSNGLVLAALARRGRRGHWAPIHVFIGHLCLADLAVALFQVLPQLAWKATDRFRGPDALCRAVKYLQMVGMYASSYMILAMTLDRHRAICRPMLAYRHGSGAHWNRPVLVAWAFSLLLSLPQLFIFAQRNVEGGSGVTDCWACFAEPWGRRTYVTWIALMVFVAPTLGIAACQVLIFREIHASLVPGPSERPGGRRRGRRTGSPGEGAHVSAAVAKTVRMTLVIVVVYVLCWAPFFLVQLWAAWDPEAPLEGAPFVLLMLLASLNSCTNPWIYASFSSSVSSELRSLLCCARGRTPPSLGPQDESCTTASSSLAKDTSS
Assay [10] concerns the target Sodium-dependent noradrenaline transporter (Homo sapiens, UniProt P23975).
Assay [11] has as its target T3, Neuropeptide Y receptor type 1 (Homo sapiens, UniProt P25929).
T3 sequence (P25929 whole entry): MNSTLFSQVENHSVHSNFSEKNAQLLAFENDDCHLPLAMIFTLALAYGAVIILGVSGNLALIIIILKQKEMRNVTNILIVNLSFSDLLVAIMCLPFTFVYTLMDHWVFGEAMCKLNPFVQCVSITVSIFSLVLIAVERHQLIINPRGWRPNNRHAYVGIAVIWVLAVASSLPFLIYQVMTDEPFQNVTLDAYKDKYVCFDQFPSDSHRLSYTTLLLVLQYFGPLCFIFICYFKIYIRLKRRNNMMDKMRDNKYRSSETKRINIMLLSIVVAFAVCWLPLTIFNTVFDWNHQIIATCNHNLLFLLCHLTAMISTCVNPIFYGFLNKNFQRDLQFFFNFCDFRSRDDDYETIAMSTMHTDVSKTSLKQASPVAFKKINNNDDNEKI
The settings on record: read-out: AC50.

Assay [12] has as its target Voltage-dependent L-type calcium channel subunit alpha-1C (Rattus norvegicus, UniProt P22002). Type of assay: functional.
Assay [13] concerns the target Gamma-aminobutyric acid receptor subunit alpha-1 (Rattus norvegicus, UniProt P62813). Type of assay: functional.
The target of assay [14] is Adenosine receptor A2a (Homo sapiens, UniProt P29274).
Chain of Adenosine receptor A2a (P29274 whole entry): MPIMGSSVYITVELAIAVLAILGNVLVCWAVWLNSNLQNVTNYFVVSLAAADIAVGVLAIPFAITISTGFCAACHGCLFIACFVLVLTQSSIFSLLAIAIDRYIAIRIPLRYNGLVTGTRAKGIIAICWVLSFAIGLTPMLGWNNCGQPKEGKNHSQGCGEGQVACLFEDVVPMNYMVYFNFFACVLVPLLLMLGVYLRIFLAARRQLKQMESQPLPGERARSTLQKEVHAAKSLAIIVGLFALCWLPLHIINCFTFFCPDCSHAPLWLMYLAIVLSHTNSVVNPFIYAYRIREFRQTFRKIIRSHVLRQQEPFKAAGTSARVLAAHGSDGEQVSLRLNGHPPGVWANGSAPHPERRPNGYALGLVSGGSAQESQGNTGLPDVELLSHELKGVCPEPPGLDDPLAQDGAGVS
Assay [15] deals with T4, Alpha-2B adrenergic receptor (Homo sapiens, UniProt P18089).
T4 sequence (P18089 whole entry): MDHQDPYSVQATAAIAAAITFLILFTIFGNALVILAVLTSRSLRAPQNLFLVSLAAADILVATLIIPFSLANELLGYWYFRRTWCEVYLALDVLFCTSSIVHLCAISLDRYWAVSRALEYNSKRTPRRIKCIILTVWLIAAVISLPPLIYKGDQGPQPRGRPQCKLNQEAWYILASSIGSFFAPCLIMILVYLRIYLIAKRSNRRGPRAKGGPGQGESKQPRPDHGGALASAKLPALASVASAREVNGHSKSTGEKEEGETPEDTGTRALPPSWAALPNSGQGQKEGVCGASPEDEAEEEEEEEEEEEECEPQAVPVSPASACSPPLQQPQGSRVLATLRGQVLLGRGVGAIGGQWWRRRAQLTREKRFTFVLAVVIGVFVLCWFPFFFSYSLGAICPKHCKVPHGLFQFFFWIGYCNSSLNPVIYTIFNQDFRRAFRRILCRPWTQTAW

Assay [16] addresses T5, Alpha-1A adrenergic receptor (Homo sapiens, UniProt P35348).
T5 sequence (P35348 whole entry): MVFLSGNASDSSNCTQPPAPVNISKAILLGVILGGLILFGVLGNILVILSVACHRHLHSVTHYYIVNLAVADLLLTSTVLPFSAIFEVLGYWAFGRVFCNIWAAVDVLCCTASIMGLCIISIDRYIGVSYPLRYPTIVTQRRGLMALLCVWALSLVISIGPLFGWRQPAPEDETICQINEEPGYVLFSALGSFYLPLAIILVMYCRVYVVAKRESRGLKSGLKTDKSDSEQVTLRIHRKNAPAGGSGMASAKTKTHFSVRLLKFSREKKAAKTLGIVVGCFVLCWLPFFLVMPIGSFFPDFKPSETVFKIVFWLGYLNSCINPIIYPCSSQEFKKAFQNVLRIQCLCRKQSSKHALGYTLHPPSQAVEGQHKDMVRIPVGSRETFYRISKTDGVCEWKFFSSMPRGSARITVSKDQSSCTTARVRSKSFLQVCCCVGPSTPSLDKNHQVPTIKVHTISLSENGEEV
Type of assay: functional, cell-based.

What is called AC50 is the midpoint of the concentration-response curve, whichever way the signal moves.
Further: assay procedure not described here.

Chain of Histamine H3 receptor (Q9Y5N1 whole entry): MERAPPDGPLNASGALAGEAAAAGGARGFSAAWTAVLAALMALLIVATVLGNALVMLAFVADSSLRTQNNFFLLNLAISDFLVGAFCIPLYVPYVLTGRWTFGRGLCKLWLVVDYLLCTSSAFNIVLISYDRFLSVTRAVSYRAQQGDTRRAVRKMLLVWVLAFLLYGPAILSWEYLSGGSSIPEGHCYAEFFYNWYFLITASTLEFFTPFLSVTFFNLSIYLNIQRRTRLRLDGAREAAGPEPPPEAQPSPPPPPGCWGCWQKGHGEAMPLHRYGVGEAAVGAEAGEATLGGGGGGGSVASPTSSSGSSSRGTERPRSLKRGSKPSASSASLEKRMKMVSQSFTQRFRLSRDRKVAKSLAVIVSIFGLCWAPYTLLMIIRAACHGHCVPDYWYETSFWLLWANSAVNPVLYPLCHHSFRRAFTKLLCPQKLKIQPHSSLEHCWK
Chain of Growth hormone secretagogue receptor type 1 (Q92847 whole entry): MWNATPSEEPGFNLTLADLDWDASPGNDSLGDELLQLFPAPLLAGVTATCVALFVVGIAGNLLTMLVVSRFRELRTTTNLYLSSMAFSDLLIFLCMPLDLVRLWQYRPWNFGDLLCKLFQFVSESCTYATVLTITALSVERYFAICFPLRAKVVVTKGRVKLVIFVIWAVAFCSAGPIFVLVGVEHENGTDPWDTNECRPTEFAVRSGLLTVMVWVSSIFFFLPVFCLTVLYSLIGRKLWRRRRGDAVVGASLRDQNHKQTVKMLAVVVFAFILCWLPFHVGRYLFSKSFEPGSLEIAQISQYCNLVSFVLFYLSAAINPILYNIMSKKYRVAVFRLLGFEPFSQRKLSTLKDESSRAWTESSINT
Chain of Melanocortin receptor 3 (P41968 whole entry): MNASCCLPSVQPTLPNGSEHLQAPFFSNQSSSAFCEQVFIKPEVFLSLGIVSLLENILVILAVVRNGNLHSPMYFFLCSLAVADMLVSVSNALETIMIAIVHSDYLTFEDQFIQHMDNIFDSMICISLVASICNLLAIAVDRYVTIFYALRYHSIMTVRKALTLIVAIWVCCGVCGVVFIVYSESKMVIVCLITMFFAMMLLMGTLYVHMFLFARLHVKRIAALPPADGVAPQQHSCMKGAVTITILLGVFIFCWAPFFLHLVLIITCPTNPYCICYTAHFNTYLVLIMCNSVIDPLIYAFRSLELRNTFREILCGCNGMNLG
Chain of Gamma-aminobutyric acid receptor subunit alpha-1 (P62813 whole entry): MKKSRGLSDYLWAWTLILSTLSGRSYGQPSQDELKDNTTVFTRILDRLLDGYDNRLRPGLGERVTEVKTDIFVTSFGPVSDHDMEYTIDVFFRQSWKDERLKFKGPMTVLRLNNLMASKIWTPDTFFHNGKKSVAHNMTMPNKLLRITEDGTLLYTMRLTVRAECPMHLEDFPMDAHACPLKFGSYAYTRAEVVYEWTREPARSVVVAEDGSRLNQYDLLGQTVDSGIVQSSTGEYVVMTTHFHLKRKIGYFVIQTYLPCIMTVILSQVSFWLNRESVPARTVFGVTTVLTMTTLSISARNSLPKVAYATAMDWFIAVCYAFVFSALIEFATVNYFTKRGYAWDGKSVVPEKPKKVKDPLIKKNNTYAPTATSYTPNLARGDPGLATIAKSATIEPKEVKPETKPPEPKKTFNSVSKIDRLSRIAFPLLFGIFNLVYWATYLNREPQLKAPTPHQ
Chain of 3',5'-cyclic-AMP phosphodiesterase 4D (Q08499 whole entry): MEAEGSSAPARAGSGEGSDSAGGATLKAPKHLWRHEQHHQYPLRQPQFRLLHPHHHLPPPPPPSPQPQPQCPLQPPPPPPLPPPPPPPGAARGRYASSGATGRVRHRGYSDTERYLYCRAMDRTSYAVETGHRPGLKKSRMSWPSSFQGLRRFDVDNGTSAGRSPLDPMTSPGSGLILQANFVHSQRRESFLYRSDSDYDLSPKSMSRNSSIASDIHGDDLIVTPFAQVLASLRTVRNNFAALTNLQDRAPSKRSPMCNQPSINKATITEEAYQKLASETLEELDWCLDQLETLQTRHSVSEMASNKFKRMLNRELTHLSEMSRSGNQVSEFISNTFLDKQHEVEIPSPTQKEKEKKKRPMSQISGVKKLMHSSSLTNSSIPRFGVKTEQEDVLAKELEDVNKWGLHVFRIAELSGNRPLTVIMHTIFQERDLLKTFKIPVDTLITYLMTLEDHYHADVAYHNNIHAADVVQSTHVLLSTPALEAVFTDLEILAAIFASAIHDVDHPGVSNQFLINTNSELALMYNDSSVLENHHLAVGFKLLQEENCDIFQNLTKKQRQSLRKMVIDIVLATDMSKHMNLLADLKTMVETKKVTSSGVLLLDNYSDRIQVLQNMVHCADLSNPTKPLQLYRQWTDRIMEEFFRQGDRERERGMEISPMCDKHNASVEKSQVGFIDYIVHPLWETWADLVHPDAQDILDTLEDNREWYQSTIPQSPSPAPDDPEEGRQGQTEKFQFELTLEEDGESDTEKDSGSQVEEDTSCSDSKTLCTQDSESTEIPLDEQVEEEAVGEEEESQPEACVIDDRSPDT
Chain of Sodium-dependent noradrenaline transporter (P23975 whole entry): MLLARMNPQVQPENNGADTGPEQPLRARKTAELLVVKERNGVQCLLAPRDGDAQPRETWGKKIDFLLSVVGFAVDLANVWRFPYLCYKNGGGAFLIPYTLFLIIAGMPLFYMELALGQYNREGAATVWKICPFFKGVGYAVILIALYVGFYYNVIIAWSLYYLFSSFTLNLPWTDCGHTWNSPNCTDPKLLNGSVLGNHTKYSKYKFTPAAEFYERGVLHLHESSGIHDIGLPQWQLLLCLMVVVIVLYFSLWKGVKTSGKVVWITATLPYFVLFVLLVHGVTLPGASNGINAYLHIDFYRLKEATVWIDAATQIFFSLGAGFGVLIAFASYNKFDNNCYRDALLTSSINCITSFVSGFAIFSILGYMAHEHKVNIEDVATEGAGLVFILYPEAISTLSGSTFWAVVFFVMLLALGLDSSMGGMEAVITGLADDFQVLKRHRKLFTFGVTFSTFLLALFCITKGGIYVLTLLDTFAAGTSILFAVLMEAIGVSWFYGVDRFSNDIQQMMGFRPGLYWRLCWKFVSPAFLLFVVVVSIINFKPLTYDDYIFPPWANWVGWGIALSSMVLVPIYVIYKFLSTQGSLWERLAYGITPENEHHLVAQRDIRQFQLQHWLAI

Take `CC(=O)SC[C@@H](C)C(=O)N1CCC[C@H]1C(=O)N[C@@H](Cc1ccccc1)C(=O)O`: the AC50 in assay [1], in assay [2], in [3], in assay [4], in assay [5] and in assay [6] was greater than 30 µM each time. Moreover, the AC50 in assay [7], in [8], in assay [9], in [10], in assay [11] and in assay [12] was greater than 30 µM in each case. Moreover, the concentration at half-maximal activity (AC50) in assay [13], in [14], in assay [15] and in assay [16] was greater than 30 µM throughout.
With `C[N@+]1(CCF)[C@@H]2CC[C@H]1C[C@@H](OC(=O)C(O)(c1ccccc1)c1ccccc1)C2`, the concentration at half-maximal activity (AC50) in [1], in assay [2], in assay [3], in [4], in assay [5] and in assay [6] was greater than 30 µM in each case. In addition, the concentration at half-maximal activity (AC50) in assay [7] is greater than 30 µM; in assay [8] it was 15 µM; in assay [9] it was greater than 30 µM; in assay [10] it was greater than 30 µM; in assay [11], greater than 30 µM; in [12], greater than 30 µM. For the same compound, the concentration at half-maximal activity (AC50) in assay [13], in [14], in [15] and in [16] was greater than 30 µM throughout.
For `CC(=O)O[C@H](CC(=O)[O-])C[N+](C)(C)C` [ACETYLCARNITINE], the AC50 in assay [1], in [2], in [3], in assay [4], in [5] and in assay [6] was greater than 30 µM in each case. Besides, the AC50 in assay [7] is greater than 30 µM; in assay [8] it was 5.2 µM; in assay [9], greater than 30 µM; in assay [10], greater than 30 µM; in assay [11], greater than 30 µM; in [12] it was greater than 30 µM. In addition, the AC50 in [13], in assay [14], in [15] and in [16] was greater than 30 µM throughout.
As to `C=C1/C(=C\C=C2/CCC[C@]3(C)[C@@H]([C@H](C)/C=C/[C@@H](O)C4CC4)CC[C@@H]23)C[C@@H](O)C[C@@H]1O` [CALCIPOTRIENE], the concentration at half-maximal activity (AC50) in assay [1], in assay [2], in assay [3], in [4], in assay [5] and in assay [6] was greater than 30 µM each time. Moreover, the AC50 in [7] is 27 µM; in [8] it was greater than 30 µM; in assay [9] it was greater than 30 µM; in assay [10], 20 µM; in [11], greater than 30 µM; in [12], greater than 30 µM. Besides, the AC50 in [13], in assay [14], in [15] and in assay [16] was greater than 30 µM each time.
Turning to `CCN(CC)C(=O)Nc1ccc(OCC(O)CNC(C)(C)C)c(C(C)=O)c1` (stereo not drawn) [CELIPROLOL], the AC50 in assay [1], in assay [2], in assay [3], in [4], in [5] and in [6] was greater than 30 µM in each case. Besides, the AC50 in [7], in [8], in assay [9], in assay [10], in assay [11] and in assay [12] was greater than 30 µM throughout. In addition, the AC50 in assay [13], in [14], in assay [15] and in assay [16] was greater than 30 µM throughout.
Turning to `C=C[C@@]1(C)CC(=O)[C@]2(O)[C@@]3(C)[C@@H](O)CCC(C)(C)[C@@H]3[C@H](O)[C@H](OC(C)=O)[C@@]2(C)O1` [COLFORSIN], the AC50 in assay [1], in [2], in [3], in [4], in assay [5] and in assay [6] was greater than 30 µM in each case. Also, the AC50 in [7], in assay [8], in assay [9], in [10], in [11] and in assay [12] was greater than 30 µM throughout. The concentration at half-maximal activity (AC50) in [13] was greater than 30 µM; in [14] it was greater than 30 µM; in [15], greater than 30 µM; in assay [16] it was 3.5 µM.
Consider `CC(=O)OCC(=O)[C@@]1(O)[C@H](C)C[C@H]2[C@@H]3CCC4=CC(=O)C=C[C@]4(C)[C@@]3(F)[C@@H](O)C[C@@]21C` [DEXAMETHASONE ACETATE], for which the AC50 in assay [1] was greater than 30 µM; in assay [2], greater than 30 µM; in assay [3] it was greater than 10 µM; in assay [4], greater than 30 µM; in assay [5], 16 µM; in assay [6] it was greater than 10 µM. Also, the AC50 in assay [7] is greater than 10 µM; in [8], greater than 10 µM; in assay [9] it was greater than 30 µM; in assay [10] it was greater than 30 µM; in [11], greater than 30 µM; in assay [12] it was greater than 10 µM. The AC50 in assay [13] is greater than 10 µM; in assay [14] it was greater than 30 µM; in assay [15], greater than 10 µM; in assay [16] it was greater than 30 µM.
For `CCCCCCCCCCCCCCCCCCCCCC(=O)Nc1ccn([C@@H]2O[C@H](CO)[C@@H](O)[C@@H]2O)c(=O)n1` [ENOCITABINE], the concentration at half-maximal activity (AC50) in assay [1], in [2], in assay [3], in assay [4], in [5] and in [6] was greater than 30 µM each time. Also, the AC50 in assay [7], in assay [8], in assay [9], in assay [10], in [11] and in assay [12] was greater than 30 µM in each case. The AC50 in assay [13], in assay [14], in [15] and in assay [16] was greater than 30 µM throughout.

The values are drawn from ChEMBL document CHEMBL5291721, “A preclinical secondary pharmacology resource illuminates target-adverse drug reaction associations of marketed drugs” (Nat Commun, 2023).
